Source: US11708348B2, “Protease inhibitors for treatment of coronavirus infections” (The Scripps Research Institute, priority 2021, dated 2023)

Tested on: SARS-CoV-2 strain USA-WA1/2020
Assay: microbe, parasite or virus in culture
Format: cell-based
Details: Severe acute respiratory syndrome coronavirus 2, HeLa-ACE2, 24 h, HeLa-ACE2 cells, SARS-CoV-2 infection, 24 h; read-out: EC50, uM (Hela)

SMILES	EC50 [µM]
CC(C)(C)C[C@@H](O)C(=O)N1C[C@H]2[C@@H]([C@H]1C(=O)N[C@@H](C[C@@H]1CCNC1=O)C(=O)COC(F)(F)F)C2(C)C [Compound 454, (1R,2S,5S)-3-((R)-2-hydroxy-4,4-dimethylpentanoyl)-6,6-dimethyl-N-((S)-3-oxo-1-((S)-2-oxopyrrolidin-3-yl)-4-(trifluoromethoxy)butan-2-yl)-3-azabicyclo[3.1.0]-hexane-2-carboxamide]	< 0.05
CC(C)(C)c1cccc(C(C)(C)C(=O)N2CC3(CC3)C[C@H]2C(=O)N[C@@H](C[C@@H]2CCNC2=O)C(=O)COC(F)(F)F)c1 [Compound 455, (S)-5-(2-(3-(tert-butyl)phenyl)-2-methylpropanoyl)-N-((S)-3-oxo-1-((S)-2-oxopyrrolidin-3-yl)-4-(trifluoromethoxy)butan-2-yl)-5-azaspiro[2.4]heptane-6-carboxamide]	0.05 to 0.2
CC(C)(C(=O)N1CC2(CC2)C[C@H]1C(=O)N[C@@H](C[C@@H]1CCNC1=O)C(=O)COC(F)(F)F)c1cccc(C(F)(F)F)c1 [Compound 456, (S)-5-(2-methyl-2-(3-(trifluoromethyl)-phenyl)propanoyl)-N-((S)-3-oxo-1-((S)-2-oxopyrrolidin-3-yl)-4-(trifluoromethoxy)butan-2-yl)-5-azaspiro[2.4]heptane-6-carboxamide]	< 0.05
O=C1NCC[C@H]1C[C@H](NC(=O)[C@@H]1CC2(CC2)CN1C(=O)c1cccc(C(F)(F)F)c1)C(=O)COC(F)(F)F [Compound 457, (S)-N-((S)-3-oxo-1-((S)-2-oxopyrrolidin-3-yl)-4-(trifluoromethoxy)butan-2-yl)-5-(3-(trifluoromethyl)-benzoyl)-5-azaspiro[2.4]heptane-6-carboxamide]	< 0.05
CC(C)(C)c1cccc(C(=O)N2CC3(CC3)C[C@H]2C(=O)N[C@@H](C[C@@H]2CCNC2=O)C(=O)COC(F)(F)F)c1 [Compound 458, (S)-5-(3-(tert-butyl)benzoyl)-N-((S)-3-oxo-1-((S)-2-oxopyrrolidin-3-yl)-4-(trifluoromethoxy)butan-2-yl)-5-azaspiro[2.4]heptane-6-carboxamide]	< 0.05
CC(C)(C)CCC(=O)N1CC2(CC2)C[C@H]1C(=O)N[C@@H](C[C@@H]1CCNC1=O)C(=O)COC(F)(F)F [Compound 459, (S)-5-(4,4-dimethylpentanoyl)-N-((S)-3-oxo-1-((S)-2-oxopyrrolidin-3-yl)-4-(trifluoromethoxy)butan-2-yl)-5-azaspiro[2.4]heptane-6-carboxamide]	< 0.05
O=C(N[C@@H](Cc1ccccc1)C(=O)N[C@@H](C[C@@H]1CCNC1=O)C(=O)COC(F)(F)F)c1cc(-c2ccccc2F)on1 [Compound 460, 5-(2-fluorophenyl)-N-((S)-1-oxo-1-(((S)-3-oxo-1-((S)-2-oxopyrrolidin-3-yl)-4-(trifluoromethoxy)butan-2-yl)amino)-3-phenylpropan-2-yl)isoxazole-3-carboxamide]	< 0.05
O=C(N[C@@H](CC1CC1)C(=O)N[C@@H](C[C@@H]1CCNC1=O)C(=O)COC(F)(F)F)c1nnc(Nc2ccccc2)o1 [Compound 461, N-((S)-3-cyclopropyl-1-oxo-1-(((S)-3-oxo-1-((S)-2-oxopyrrolidin-3-yl)-4-(trifluoromethoxy)butan-2-yl)amino)propan-2-yl)-5-(phenylamino)-l,3,4-oxadiazole-2-carboxamide]	0.2 to 0.5
O=C(N[C@@H](CC1CC1)C(=O)N[C@@H](C[C@@H]1CCNC1=O)C(=O)COC(F)(F)F)c1cc(Cc2ccccc2)on1 [Compound 462, 5-benzyl-N-((S)-3-cyclopropyl-1-oxo-1-(((S)-3-oxo-1-((S)-2-oxopyrrolidin-3-yl)-4-(trifluoromethoxy)butan-2-yl)amino)propan-2-yl)isoxazole-3-carboxamide]	< 0.05
CC(C)C[C@H](NC(=O)c1cc(-c2ccccn2)on1)C(=O)N[C@@H](C[C@@H]1CCNC1=O)C(=O)COC(F)(F)F [Compound 464, N-((S)-4-methyl-1-oxo-1-(((S)-3-oxo-1-((S)-2-oxopyrrolidin-3-yl)-4-(trifluoromethoxy)butan-2-yl)amino)pentan-2-yl)-5-(pyridin-2-yl)isoxazole-3-carboxamide]	< 0.05
CC(C)C[C@H](Nc1cc2ccccc2[nH]c1=O)C(=O)N[C@@H](C[C@@H]1CCNC1=O)C(=O)COC(F)(F)F [Compound 465, (S)-4-methyl-2-((2-oxo-1,2-dihydroquinolin-3-yl)amino)-N-((S)-3-oxo-1-((S)-2-oxopyrrolidin-3-yl)-4-(trifluoromethoxy)butan-2-yl)pentanamide]	0.2 to 0.5
COc1cccc2cc(C(=O)N[C@@H](CC(C)C)C(=O)N[C@@H](C[C@@H]3CCNC3=O)C(=O)COC(F)(F)F)oc12 [Compound 466, 7-methoxy-N-((S)-4-methyl-1-oxo-1-(((S)-3-oxo-1-((S)-2-oxopyrrolidin-3-yl)-4-(trifluoromethoxy)butan-2-yl)amino)pentan-2-yl)benzofuran-2-carboxamide]	< 0.05
O=C(NC1CCCCC1)C(=O)N1C[C@@H]2CCC[C@@H]2[C@H]1C(=O)N[C@@H](C[C@@H]1CCNC1=O)C(=O)COC(F)(F)F [Compound 467, (1S,3aR,6aS)-2-(2-(cyclohexylamino)-2-oxoacetyl)-N-((S)-3-oxo-1-((S)-2-oxopyrrolidin-3-yl)-4-(trifluoromethoxy)butan-2-yl)octahydrocyclo-penta[c]pyrrole-1-carboxamide]	0.5 to 1
CC1(C)[C@@H]2[C@@H](C(=O)N[C@@H](C[C@@H]3CCNC3=O)C(=O)COC(F)(F)F)N(C(=O)c3csc(C(F)(F)F)n3)C[C@@H]21 [Compound 468, (1R,2S,5S)-6,6-dimethyl-N-((S)-3-oxo-1-((S)-2-oxopyrrolidin-3-yl)-4-(trifluoromethoxy)butan-2-yl)-3-(2-(trifluoromethyl)-thiazole-4-carbonyl)-3-azabicyclo[3.1.0]-hexane-2-carboxamide]	0.05 to 0.2
CC1(NC(=O)C(=O)N2C[C@H]3[C@@H]([C@H]2C(=O)N[C@@H](C[C@@H]2CCNC2=O)C(=O)COC(F)(F)F)C3(C)C)CC1 [Compound 469, (1R,2S,5S)-6,6-dimethyl-3-(2-((l-methylcyclopropyl)-amino)-2-oxoacetyl)-N-((S)-3-oxo-1-((S)-2-oxopyrrolidin-3-yl)-4-(trifluoromethoxy)butan-2-yl)-3-azabicyclo[3.1.0]-hexane-2-carboxamide]	0.05 to 0.2
CC1(C)[C@@H]2[C@@H](C(=O)N[C@@H](C[C@@H]3CCCNC3=O)C(=O)COC(F)(F)F)N(C(=O)C(=O)NC3CCCCC3)C[C@@H]21 [Compound 470, (1R,2S,5S)-3-(2-(cyclohexylamino)-2-oxoacetyl)-6,6-dimethyl-N-((S)-3-oxo-1-((S)-2-oxopiperidin-3-yl)-4-(trifluoromethoxy)butan-2-yl)-3-azabicyclo[3.1.0]-hexane-2-carboxamide]	< 0.05
CC(C)(NC(=O)C(=O)N1Cc2ccccc2C[C@H]1C(=O)N[C@@H](C[C@@H]1CCNC1=O)C(=O)COC(F)(F)F)C(F)(F)F [Compound 472, (S)-N-((S)-3-oxo-1-((S)-2-oxopyrrolidin-3-yl)-4-(trifluoromethoxy)butan-2-yl)-2-(2-oxo-2-((1,1,1-trifluoro-2-methylpropan-2-yl)amino)acetyl)-1,2,3,4-tetrahydro-isoquinoline-3-carboxamide]	0.05 to 0.2
